According to ChEMBL document CHEMBL5257046, “Characterization of Serrulatane Diterpenoids in Eremophila phyllopoda subsp. phyllopoda by Triple High-Resolution α-Glucosidase/PTP1B/Radical Scavenging Profiling, NMR Spectroscopy, DFT-GIAO NMR, and Electronic Circular Dichroism Calculations” (J Nat Prod, 2023):

target: Alpha glucosidase (Homo sapiens, UniProt O43451+P10253+P14410+Q2M2H8); assay: Inhibition of alpha-glucosidase (unknown origin) using p-nitrophenyl-glycoside as substrate preincubated for 10 mins followed by substrate addition by microplate reader analysis; type: protein assay

SMILES | IC50
CC(C)=CCC[C@H](CO)[C@@H]1CC[C@@H](CO)c2c(O)cc(C)cc21 | 28.4 µM
CC(C)=CCC[C@H](C)[C@@H]1CC[C@@H](CO)c2c(O)cc(C)cc21 | 64.2 µM

target: T1, Tyrosine-protein phosphatase non-receptor type 1 (Homo sapiens, UniProt P18031); assay: Inhibition of PTP1B (unknown origin) using pNPP as substrate preincubated for 10 mins followed by substrate addition and measured every 30 sec for 10 mins by microplate photometer analysis
T1 sequence (P18031 whole entry): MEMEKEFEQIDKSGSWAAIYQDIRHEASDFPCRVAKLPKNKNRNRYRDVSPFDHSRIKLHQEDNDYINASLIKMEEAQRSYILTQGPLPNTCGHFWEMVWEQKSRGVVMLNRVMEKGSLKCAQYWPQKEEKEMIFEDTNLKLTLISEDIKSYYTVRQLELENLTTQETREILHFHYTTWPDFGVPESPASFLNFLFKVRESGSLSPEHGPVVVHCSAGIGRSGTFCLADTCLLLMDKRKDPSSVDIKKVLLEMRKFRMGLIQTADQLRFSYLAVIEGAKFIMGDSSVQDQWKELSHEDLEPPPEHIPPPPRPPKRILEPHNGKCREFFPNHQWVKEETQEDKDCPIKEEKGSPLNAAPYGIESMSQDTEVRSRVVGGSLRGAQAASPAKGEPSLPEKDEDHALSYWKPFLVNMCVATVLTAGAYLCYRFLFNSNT

SMILES | IC50
CCCCCCCCCCCCCCCC(=O)C1=C(O)C(CO)OC1=O (configuration not stated) | 14.4 µM
CC(C)=CCC[C@H](C)c1cccc2c(O)cc(C)cc12 | 16.6 µM
CC(C)=CCC[C@H](C)[C@@H]1C[C@H](O)[C@@H](C)c2c(O)cc(C)cc21 | 80 µM
CC(C)=CCC[C@H](C)[C@H]1c2cc(C)cc(O)c2[C@H](C)C[C@H]1O | 105 µM
CC(C)=CCC[C@H](C)[C@@H]1CC[C@@H](CO)c2c(O)cc(C)cc21 | 20 µM
